Data published in US8691864B2, “Agents useful for reducing amyloid precursor protein and treating dementia and methods of use thereof” (priority 2000, dated 2014).

Assays:
secreted APP = test: ELISA for secreted APP in SHSY5Y cells; format: cell-based, human; conditions: 16 hours
Method: (§1) An enzyme-linked immunosorbent assay was developed to detect secreted APP in SHSY5Y cells, a human neuroblastoma cell line. The purpose of the screen was to discover small molecules that inhibit APP protein synthesis in SHSY5Y cells. SHSY5Y cells were plated at 1×10^5 cells/well in […] of DMEM containing 0.5% heat inactivated FBS in 96 well tissue culture treated plates (Falcon no. 35 3072). 144 MES compounds were tested at final concentrations of […] in 0.1% DMSO. Compounds were added and the plates incubated for 16 hours at 37° C./5% CO2. Maxisorp plates (Nunc no. 437958) were coated overnight with […] capture antibody (Biosource 44-100) diluted in Ca^++ and Mg^++ free PBS. Biosource 44-100 is a mouse mAb that recognizes aa 1-100 of human APP. Plates were blocked for 30 minutes with 1 mg/mL BSA in Ca^++ and Mg^++ free PBS. Plates were washed 3× with wash buffer (Ca^++ and Mg^++ free PBS+0.01% Tween20). […] of supernatants and non-cultured medium controls were transferred from culture plates to ELISA plates. Culture plates were reserved for toxicity analysis. Supernatants were incubated for 4 hours at RT on a plate shaker. After supernatant incubation, plates were washed 3×. Primary antibody (Signet Clone 6E-10 biotin) was added at 0.3125 mg/mL and incubated overnight at 4° C. The recognition site of 6E-10 is aa 1-17 of Ab. For detection, a 1:3000 dilution of horseradish peroxidase conjugated streptavidin (Endogen no. N-100) was incubated for 30 minutes. Plates were washed 3×. Enzyme activity was assessed by incubation with […] TMB substrate solution (Moss no. TMB-US) for 20 minutes. The reaction was stopped by the addition of […] 0.18M sulfuric acid. Optical density was read at 450 nm on Wallac Victor2 plate reader. During the first incubation, toxicity was determined using MTS assay, Cell Titer96 AQ reagent (Promega no. G5430). The background values from the non-cultured medium control were subtracted from the sample values and secreted APP levels and toxicity were expressed as % vehicle control. Of the 144 MES compounds screened, 12 inhibited secreted APP as determined by ELISA. The results are depicted in FIGS. 13A-M.
(§2) Using the experimental procedure outlined above, APP secretion and toxicity studies were performed on several other non-carbamate compounds, and the results are shown in Tables 3 and 4. The compound structures are provided in Table 2 in the application, which are identified by their MES number.

SH-SY-5Y Cells = test: MTS toxicity assay in SHSY5Y cells; format: cell-based, human
Method: as §1, §2

Row | SMILES | APP Secretion by SH-SY-5Y Cells (secreted APP; Dose 2 uM) [% vehicle control] | APP Secretion by SH-SY-5Y Cells (secreted APP; Dose 6 uM) [% vehicle control] | APP Secretion by SH-SY-5Y Cells (secreted APP; Dose 20 uM) [% vehicle control] | APP Toxicity SH-SY-5Y Cells (MTS assay) (SH-SY-5Y Cells; Dose 2 uM) [% vehicle control] | APP Toxicity SH-SY-5Y Cells (MTS assay) (SH-SY-5Y Cells; Dose 6 uM) [% vehicle control] | APP Toxicity SH-SY-5Y Cells (MTS assay) (SH-SY-5Y Cells; Dose 20 uM) [% vehicle control]
1 | CC(Br)C(=O)N(Cc1ccccc1)c1ccc(O)cc1 (stereo not drawn) [MES 9306] | 110.75 | 114.55 | 124.8 | 102.3 | 101.45 | 106
2 | COC(=O)CC1(C)C(=O)N(C)c2ccc(OC)cc21 (stereo not drawn) [MES 9309] | 100 | 106.4 | 100.9 | 100.85 | 98.6 | 101.1
3 | COc1ccc2c(c1)[C@@](C)(CCN(C)C)C(=O)N2C [MES 9310] | 104.8 | 97.85 | 98.95 | 101.85 | 99.9 | 97.7
4 | CN(C)CC[C@]1(C)C(=O)N(C)c2ccc(O)cc21 [MES 9311] | 102.45 | 103.05 | 102.7 | 101.1 | 101.25 | 99.55
5 | CN1C(=O)C(=O)c2ccccc21 [MES 9312] | 105.4 | 101.7 | 96.65 | 99.95 | 103.85 | 106.95
6 | COc1ccc2c(c1)[C@](C)(CCN)C(=O)N2C.Cl [MES 9314] | 111.25 | 99.15 | 109.4 | 100.15 | 100.85 | 100.6
7 | COc1ccc2[nH]c3c(c2c1)CCN(C)C3 [MES 9316] | 104.15 | 98.45 | 102 | 99.15 | 98.05 | 98.75
8 | COC(=O)NCCC1C(=O)N(Cc2ccccc2)c2ccc(OC)cc21 (stereo not drawn) [MES 9317] | 99.87 | 112.3 | 122 | 97.27 | 97.23 | 93.5
9 | COc1ccc2c(c1)[C@]1(C)CCOC1N2C (stereo partly drawn) [MES 9318] | 104.05 | 103.4 | 108.75 | 96.2 | 96.45 | 96.05
